Laboratory results as given in patent publication US6706880B2 (Research Triangle Institute, priority 1990, dated 2004).
Counter-ions that a name gives are not always drawn. Like-named read-outs stand apart in the source and are kept apart here.

What was measured:
[1] = target: T1, serotonin transporter (Rattus norvegicus, UniProt P31652); experiment: Inhibition of [3H]paroxetine radioligand binding at the serotonin transporter
T1 construct: from tissue
Source text: (§1) Illustrative in vitro assays for binding are described in Boja et al Ann. NY Acad. Sci. 654:282-291 (1992), which is incorporated herein by reference in its entirety. […] Alternatively, the compounds may be analyzed by their ability to inhibit reuptake of a labelled neurotransmitter in a sample, in particular, in synaptosomes.

[2] = target: dopamine transporter (UniProt P23977); format: binding
Source text: as §1

[3] = tested on: dopamine transporter; format: binding; conditions: ratio of IC50 values, Table II
Source text: as §1

[4] = target: norepinephrine transporter (UniProt Q9WTR4); experiment: Inhibition of [3H]nisoxetine radioligand binding at the norepinephrine transporter
Source text: as §1

[5] = IC50 5-HT [3H]-paroxatine, Table II
[6] = read-out: IC50 DA [3H]-WIN 35,428, Table II
[7] = read-out: IC50 NE [3H]-nisoxetine, Table II
[8] = 5-HT IC50 for inhibition of radioligand binding, 5-HT=[3H] paroxetine
[9] = read-out: DA IC50 for inhibition of radioligand binding, DA=[3H]WIN 35,428
[10] = read-out: NEN IC50 for inhibition of radioligand binding, NEN=[3H] nisoxetine
[11] = 5-HT=[3H] paroxetine, read-out: 5-HT IC50 for inhibition of radioligand binding
[12] = IC50 5-HT [3H]-paroxetine, Table IV
[13] = read-out: IC50 DA [3H]-WIN 35,428, Table IV
[14] = read-out: IC50 NE [3H]-nisoxetine, Table IV
[15] = NEN=[3H] nisoxetine, read-out: NEN IC50 for inhibition of radioligand binding

T1 sequence (P31652 whole entry): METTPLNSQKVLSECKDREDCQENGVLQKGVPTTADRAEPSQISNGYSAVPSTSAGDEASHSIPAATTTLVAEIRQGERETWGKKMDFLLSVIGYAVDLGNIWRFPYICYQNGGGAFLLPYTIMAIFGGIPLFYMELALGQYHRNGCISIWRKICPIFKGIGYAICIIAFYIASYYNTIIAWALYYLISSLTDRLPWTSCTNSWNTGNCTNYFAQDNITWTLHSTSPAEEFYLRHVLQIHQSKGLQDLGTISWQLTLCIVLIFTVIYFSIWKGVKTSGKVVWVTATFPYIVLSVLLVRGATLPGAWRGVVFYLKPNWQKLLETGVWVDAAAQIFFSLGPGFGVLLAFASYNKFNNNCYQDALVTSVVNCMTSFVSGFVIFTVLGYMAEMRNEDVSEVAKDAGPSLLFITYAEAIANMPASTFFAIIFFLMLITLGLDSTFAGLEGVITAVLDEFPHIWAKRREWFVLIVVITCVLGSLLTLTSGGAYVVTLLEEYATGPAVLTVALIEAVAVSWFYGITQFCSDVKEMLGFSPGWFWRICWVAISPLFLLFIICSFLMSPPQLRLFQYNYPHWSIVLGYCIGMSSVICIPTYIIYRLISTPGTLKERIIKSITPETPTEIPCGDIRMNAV

SMILES | IC50 [1, 8] | IC50 [2, 9] | IC50 [4, 10] | IC50 [1, 11] | further results
Cc1ccc([C@H]2C[C@@H]3CC[C@H]([C@H]2c2nn[nH]n2)N3C)cc1 [RTI-157, 3β-(4-Methylphenyl)-tropane-2β-tetrazole Hydrochloride] | – | – | – | – | IC50 [1, 5]: 43600 nM; IC50 [2, 6]: 1560 nM; 5-HT/DA Ratio [3]: 28; NE/DA Ratio [3]: 21; IC50 [4, 7]: 32500 nM
CC(C)c1noc(C2C(c3ccc(Cl)cc3)CC3CCC2N3C)n1 (stereo not drawn) [RTI-4229-154] | 3460 nM | 6 nM | 135 nM | – | –
Cc1ccc(C2CC3CCC(C2c2cc(C)no2)N3C)cc1.Cl (stereo not drawn) [RTI-4229-171, 3β-(4-Methylphenyl)-2P-(3-methylisoxazol-5-yl)tropane Hydrochloride] | – | 0.93 nM | 254 nM | 3820 nM | IC50 ([1]; Table II, read-out: IC50 5-HT [3H]-paroxatine (converted)): 3820 nM; IC50 [2, 6]: 0.93 nM; 5-HT/DA Ratio [3]: 4105; NE/DA Ratio [3]: 273; IC50 [4, 7]: 254 nM
CCc1ccc(C2CC3CCC(N3)C2C(=O)OC)cc1 (stereo not drawn) [RTI-4229-173] | – | 49.9 nM | 122 nM | 8.13 nM | –
Cc1ccc([C@H]2C[C@@H]3CC[C@H]([C@H]2c2cc(-c4ccccc4)no2)N3C)cc1 [RTI-4229-176, 3β-(4-Methylphenyl)-2β-(3-phenylisoxazol-5-yl)tropane Hydrochloride] | 5110 nM | 1.58 nM | 398 nM | – | IC50 [1, 5]: 5110 nM; IC50 [2, 6]: 1.58 nM; 5-HT/DA Ratio [3]: 3234; NE/DA Ratio [3]: 251; IC50 [4, 7]: 398 nM
CN1C2CCC1C(C(=O)OC1CC1)C(c1ccc(Cl)cc1)C2 (stereo not drawn) [RTI-4229-190] | – | 0.96 nM | 235 nM | 168 nM | –
CN1C2CCC1C(C(=O)OC1CC1)C(c1ccc(I)cc1)C2 (stereo not drawn) [RTI-4229-191] | – | 0.61 nM | 102 nM | 15.5 nM | –
Cc1ccc(C2CC3CCC(C2C(=O)OC2CC2)N3C)cc1 (stereo not drawn) [RTI-4229-193] | – | 1.68 nM | 544 nM | 1070 nM | –
Cc1cccc(OC(=O)C2C(c3ccc(Cl)cc3)CC3CCC2N3C)c1 (stereo not drawn) [RTI-4229-203] | – | 9.37 nM | 2740 nM | 2150 nM | –
Cc1ccccc1OC(=O)C1C(c2ccc(Cl)cc2)CC2CCC1N2C (stereo not drawn) [RTI-4229-204] | – | 3.91 nM | 4780 nM | 3770 nM | –
Cc1ccc(C2CC3CCC(C2C(=O)Oc2cccc(C)c2)N3C)cc1 (stereo not drawn) [RTI-4229-205] | – | 8.19 nM | 2140 nM | 5240 nM | –
Cc1ccc(OC(=O)C2C(c3ccc(Cl)cc3)CC3CCC2N3C)cc1 (stereo not drawn) [RTI-4229-206] | – | 27.4 nM | 1280 nM | 1200 nM | –
CN1C2CCC1C(C(=O)N1CCCCOCC1)C(c1ccc(Cl)cc1)C2 (stereo not drawn) [RTI-4229-214] | 88800 nM | 2.9 nM | 8550 nM | – | –
C=C(C)C1C(c2ccc(Cl)cc2)CC2CCC1N2C (stereo not drawn) [RTI-4229-230] | 57.4 nM | 1.26 nM | 141 nM | – | IC50 [1, 12]: 57 ± 50 nM; IC50 [2, 13]: 1.28 ± 0.17 nM; IC50 [4, 14]: 141 ± 18 nM
Cc1ccc(C2CC3CCC(C2C(C)C)N3C)cc1 (stereo not drawn) [RTI-4229-239] | 114 nM | 0.61 nM | 35.6 nM | – | IC50 [1, 12]: 114 ± 3.69 nM; IC50 [2, 13]: 0.61 ± 0.07 nM; IC50 [4, 14]: 35.6 ± 2.57 nM
CC(C)C1C(c2ccc(Cl)cc2)CC2CCC1N2C (stereo not drawn) [RTI-4229-240] | 38.4 nM | 1.38 nM | 84.5 nM | – | IC50 [1, 12]: 38.4 ± 2.31 nM; IC50 [2, 13]: 1.38 ± 0.03 nM; IC50 [4, 14]: 84.5 ± 3.09 nM
COC(=O)CC1C(c2ccc(C)cc2)CC2CCC1N2C (stereo not drawn) [RTI-4229-241] | 618 nM | 1.02 nM | 124 nM | – | IC50 [1, 12]: 618 ± 28 nM; IC50 [2, 13]: 1.02 ± 0.06 nM; IC50 [4, 14]: 124 ± 3.56 nM
COC(=O)C1CN2C3CCC2C(C1=O)C(c1ccc(Cl)cc1)C3 (stereo not drawn) [RTI-4229-242] | 227 nM | – | – | – | IC50 ([2]; DA=[3H]WIN 35,428, read-out: DA IC50 for inhibition of radioligand binding): 7.57 nM; IC50 [4, 15]: 510 nM
O=C1CCN2C3CCC2C1C(c1ccc(Cl)cc1)C3 (stereo not drawn) [RTI-4229-243] | 156 nM | 129 nM | – | – | IC50 [4, 15]: 540 nM
CCOC(=O)CN1C2CCC1C(C(=O)OC)C(c1ccc(Cl)cc1)C2 (stereo not drawn) [RTI-4229-251] | 10.1 nM | 1.93 nM | 114 nM | – | –
COC(=O)CCN1C2CCC1C(C(=O)OC)C(c1ccc(Cl)cc1)C2 (stereo not drawn) [RTI-4229-252] | 35.2 nM | 2.56 nM | 125 nM | – | –
Fc1ccc(C2CC3CCC(N3)C2COc2ccc3c(c2)OCO3)cc1 (stereo not drawn) [RTI-4229-274] | 5.62 nM | 3.96 nM | 14.4 nM | – | –
CN1C2CCC1C(C(=O)Oc1ccccc1)C(c1ccc([N+](=O)[O-])cc1)C2 (stereo not drawn) [RTI-4229-277] | 2910 nM | 5.94 nM | 5700 nM | – | –
COC(=O)C1C2CCC(CC1c1ccc(C)c(I)c1)N2 (stereo not drawn) [RTI-4229-279] | 1.06 nM | 5.96 nM | 74.3 nM | – | IC50 ([1]; IC50 5-HT [3H] Paroxetine, Table III): 1.06 ± 0.39 nM; IC50 ([2]; read-out: IC50 DA [3H] WIN 35,428, Table III): 5.98 ± 0.48 nM; IC50 ([4]; read-out: IC50 NE [3H] Nisoxetine, Table III): 74.3 ± 3.8 nM
